What was measured:
[1] = target: CDK3/Cyclin E (Homo sapiens) (UniProt P24864+Q00526); experiment: Inhibition of full length C-terminal His6-tagged human CDK3/full length N-terminal GST-tagged human Cyclin E expressed in baculovirus infected Sf21 insect cells assessed as residual activity at 10 uM relative to control
LOX IMVI = experiment: Growth inhibition of human LOX IMVI cells assessed as growth percentage at 10 uM measured after 48 hrs by sulforhodamine B assay relative to control; assay type: functional; settings: read-out: Activity
[2] = target: Angiopoietin-1 receptor (Homo sapiens) (UniProt Q02763); experiment: Inhibition of recombinant N-terminal His6-tagged human Tie2 (771 to end residues) expressed in baculovirus infected Sf21 insect cells at 10 uM relative to control
[3] = test system: PI3-kinase p110-alpha/p85-alpha (Homo sapiens), P27986+P42336 [E545K]; experiment: Inhibition of p110alpha/p85alpha E545K mutant (unknown origin) at 10 uM relative to control; assay type: protein-complex assay
MDA-MB-231 = experiment: cells; assay type: functional; settings: Homo sapiens, time 48 hrs
Description: Growth inhibition of human MDA-MB-231/ATCC cells incubated for 48 hrs by sulforhodamine B assay

UO-31 = experiment: cells; assay type: functional; settings: Homo sapiens, time 48 hrs
Description: Growth inhibition of human UO-31 cells incubated for 48 hrs by sulforhodamine B assay

[4] = test system: Panel prostate (Carcinoma cell lines); experiment: cells; assay type: functional; settings: Homo sapiens, time 48 hrs
Description: Growth inhibition of human Panel prostate (Carcinoma cell lines) incubated for 48 hrs by sulforhodamine B assay

[5] = test system: PI3-kinase p110-alpha/p85-alpha (Homo sapiens), P27986+P42336 [H1047R]; experiment: Inhibition of p110alpha/p85alpha H1047R mutant (unknown origin) at 10 uM relative to control; assay type: protein-complex assay
[6] = target: MAP kinase-activated protein kinase 2 (Homo sapiens) (UniProt P49137); experiment: Inhibition of human MAPKAPK2 expressed in Escherichia coli at 10 uM relative to control
cells = assay type: functional; settings: Homo sapiens, Non-small cell lung cancer cell line; time 48 hrs
Description: Growth inhibition of human Non-small cell lung cancer cell line incubated for 48 hrs by sulforhodamine B assay

MCF7 = experiment: cells; assay type: functional; settings: Homo sapiens, time 48 hrs
Description: Growth inhibition of human MCF7 cells incubated for 48 hrs by sulforhodamine B assay

[7] = target: Epidermal growth factor receptor (Homo sapiens) (UniProt P00533); experiment: Inhibition of N-terminal GST-tagged human EGFR (696 to end residues) expressed in baculovirus-infected Sf21 cells assessed as residual activity at 10 uM relative to control
[8] = target: Serine/threonine-protein kinase 3 (Homo sapiens) (UniProt Q13188); experiment: Inhibition of recombinant N-terminal His6-tagged human MST2 (2 to end residues) expressed in baculovirus infected Sf21 insect cells at 10 uM relative to control
[9] = target: Serine/threonine-protein kinase B-raf (Homo sapiens) (UniProt P15056); experiment: Inhibition of recombinant N-terminal GST-tagged human BRAF (417 to 766 residues) expressed in Sf9 cells assessed as residual activity at 10 uM relative to control
NCI-H322M = experiment: cells; assay type: functional; settings: Homo sapiens, time 48 hrs
Description: Growth inhibition of human NCI-H322M cells incubated for 48 hrs by sulforhodamine B assay

[10] = target: Proto-oncogene tyrosine-protein kinase receptor Ret (Homo sapiens) (UniProt P07949); experiment: Inhibition of recombinant N-terminal GST-tagged human RET (658 to end residues) expressed in baculovirus infected Sf21 insect cells at 10 uM relative to control
NCI-H460 = experiment: cells; assay type: functional; settings: Homo sapiens, time 48 hrs
Description: Growth inhibition of human NCI-H460 cells incubated for 48 hrs by sulforhodamine B assay

[11] = Cytotoxicity against human HFF-1 cells assessed as cell growth inhibition at 1 uM by MTT assay relative to control; assay type: cell-based; settings: read-out: GI
HOP-92 = experiment: cells; assay type: functional; settings: Homo sapiens, time 48 hrs
Description: Growth inhibition of human HOP-92 cells incubated for 48 hrs by sulforhodamine B assay

OVCAR-8 = experiment: cells; assay type: functional; settings: Homo sapiens, time 48 hrs
Description: Growth inhibition of human OVCAR-8 cells incubated for 48 hrs by sulforhodamine B assay

SR = experiment: cells; assay type: functional; settings: Homo sapiens, time 48 hrs
Description: Growth inhibition of human SR cells incubated for 48 hrs by sulforhodamine B assay

[12] = test system: Panel colon (Carcinoma cell lines); experiment: cells; assay type: functional; settings: Homo sapiens, time 48 hrs
Description: Growth inhibition of human Panel colon (Carcinoma cell lines) incubated for 48 hrs by sulforhodamine B assay

[13] = test system: Panel melanoma (Carcinoma cell lines); experiment: cells; assay type: functional; settings: Homo sapiens, time 48 hrs
Description: Growth inhibition of human Panel melanoma (Carcinoma cell lines) incubated for 48 hrs by sulforhodamine B assay

CCRF-CEM = experiment: cells; assay type: functional; settings: Homo sapiens, time 48 hrs
Description: Growth inhibition of human CCRF-CEM cells incubated for 48 hrs by sulforhodamine B assay

[14] = target: Mitogen-activated protein kinase 8 (Homo sapiens) (UniProt P45983); experiment: Inhibition of N-terminal His-tagged recombinant full length human JNK1alpha1 expressed in Sf21 cells at 10 uM relative to control
PC-3 = experiment: cells; assay type: functional; settings: Homo sapiens, time 48 hrs
Description: Growth inhibition of human PC-3 cells incubated for 48 hrs by sulforhodamine B assay

[15] = target: Tyrosine-protein kinase SYK (Homo sapiens) (UniProt P43405); experiment: Inhibition of recombinant full length N-terminal His6-tagged human SYK expressed in baculovirus infected Sf21 insect cells at 10 uM relative to control
[16] = test system: Tyrosine-protein kinase ABL1 (Homo sapiens), P00519 [T315I]; experiment: Inhibition of recombinant N-terminal His6-tagged human ABL T315I mutant (27 to end residues) expressed in baculovirus infected Sf21 insect cells assessed as residual activity at 10 uM relative to control
[17] = target: Calcium/calmodulin-dependent protein kinase type II subunit beta (Homo sapiens) (UniProt Q13554); experiment: Inhibition of CaMK2beta (unknown origin) at 10 uM relative to control
[18] = target: Hepatocyte growth factor receptor (Homo sapiens) (UniProt P08581); experiment: Inhibition of recombinant N-terminal His6-tagged human MET (974 to end residues) expressed in baculovirus infected Sf21 insect cells at 10 uM relative to control
[19] = target: High affinity nerve growth factor receptor (Homo sapiens, UniProt P04629); experiment: Inhibition of recombinant N-terminal His6-tagged human TrkA (440 to end residues) expressed in baculovirus infected Sf21 insect cells at 10 uM relative to control
[20] = target: Serine/threonine-protein kinase Sgk1 (Homo sapiens) (UniProt O00141); experiment: Inhibition of human SGK1 at 10 uM relative to control; settings: Sf21
[21] = Cytotoxicity against human HFF-1 cells assessed as cell growth inhibition by MTT assay; assay type: cell-based
NCI-H226 = experiment: cells; assay type: functional; settings: Homo sapiens, time 48 hrs
Description: Growth inhibition of human NCI-H226 cells incubated for 48 hrs by sulforhodamine B assay

[22] = target: Proto-oncogene tyrosine-protein kinase ROS (Homo sapiens) (UniProt P08922); experiment: Inhibition of recombinant N-terminal His6-tagged human ROS (1883 to end residues) expressed in baculovirus infected Sf21 insect cells at 10 uM relative to control
[23] = target: Insulin-like growth factor 1 receptor (Homo sapiens) (UniProt P08069); experiment: Inhibition of human IGF1R assessed as residual activity at 10 uM relative to control
[24] = target: Vascular endothelial growth factor receptor 2 (Homo sapiens) (UniProt P35968); experiment: Inhibition of N-terminal His6-tagged recombinant human KDR (790 to end residues) expressed in baculovirus infected Sf21 cells at 10 uM relative to control
UACC-257 = experiment: cells; assay type: functional; settings: Homo sapiens, time 48 hrs
Description: Growth inhibition of human UACC-257 cells incubated for 48 hrs by sulforhodamine B assay

A549 = experiment: cells; assay type: functional; settings: Homo sapiens, time 48 hrs
Description: Growth inhibition of human A549/ATCC cells incubated for 48 hrs by sulforhodamine B assay

Chain of MAP kinase-activated protein kinase 2 (Homo sapiens) (P49137 whole entry, looked up): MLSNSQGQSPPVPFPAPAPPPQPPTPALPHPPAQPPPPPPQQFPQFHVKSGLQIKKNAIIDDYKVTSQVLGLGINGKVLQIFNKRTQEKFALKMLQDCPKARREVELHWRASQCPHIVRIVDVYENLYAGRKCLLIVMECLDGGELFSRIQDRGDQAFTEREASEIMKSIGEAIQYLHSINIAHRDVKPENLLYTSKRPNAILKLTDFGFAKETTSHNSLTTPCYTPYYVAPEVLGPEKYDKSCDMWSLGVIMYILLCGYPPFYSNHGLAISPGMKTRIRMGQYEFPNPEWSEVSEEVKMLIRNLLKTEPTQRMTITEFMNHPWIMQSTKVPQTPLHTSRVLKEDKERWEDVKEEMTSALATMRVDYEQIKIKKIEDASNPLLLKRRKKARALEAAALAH
Chain of Serine/threonine-protein kinase B-raf (Homo sapiens) (P15056 whole entry, the tested form may be a part): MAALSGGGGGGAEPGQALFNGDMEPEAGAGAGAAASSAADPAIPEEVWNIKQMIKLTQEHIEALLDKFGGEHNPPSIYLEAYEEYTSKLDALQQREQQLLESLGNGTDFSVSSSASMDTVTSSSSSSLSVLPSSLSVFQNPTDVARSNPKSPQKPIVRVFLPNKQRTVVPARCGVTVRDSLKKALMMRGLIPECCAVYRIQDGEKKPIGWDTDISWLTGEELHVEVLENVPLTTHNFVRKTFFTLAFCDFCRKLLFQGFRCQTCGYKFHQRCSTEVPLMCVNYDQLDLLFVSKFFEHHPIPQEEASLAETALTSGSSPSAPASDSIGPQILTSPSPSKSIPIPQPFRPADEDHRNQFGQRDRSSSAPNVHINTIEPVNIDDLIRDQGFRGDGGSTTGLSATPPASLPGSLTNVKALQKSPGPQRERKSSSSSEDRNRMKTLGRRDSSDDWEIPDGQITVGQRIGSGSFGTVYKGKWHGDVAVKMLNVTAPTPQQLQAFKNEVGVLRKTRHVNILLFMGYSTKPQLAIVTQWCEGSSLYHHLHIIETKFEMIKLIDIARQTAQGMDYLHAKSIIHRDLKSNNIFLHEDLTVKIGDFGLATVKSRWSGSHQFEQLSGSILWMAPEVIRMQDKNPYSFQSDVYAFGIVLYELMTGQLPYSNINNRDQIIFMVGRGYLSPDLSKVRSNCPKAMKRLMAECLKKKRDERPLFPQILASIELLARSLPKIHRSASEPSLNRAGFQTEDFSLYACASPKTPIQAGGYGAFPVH
Chain of Proto-oncogene tyrosine-protein kinase ROS (Homo sapiens) (P08922 whole entry): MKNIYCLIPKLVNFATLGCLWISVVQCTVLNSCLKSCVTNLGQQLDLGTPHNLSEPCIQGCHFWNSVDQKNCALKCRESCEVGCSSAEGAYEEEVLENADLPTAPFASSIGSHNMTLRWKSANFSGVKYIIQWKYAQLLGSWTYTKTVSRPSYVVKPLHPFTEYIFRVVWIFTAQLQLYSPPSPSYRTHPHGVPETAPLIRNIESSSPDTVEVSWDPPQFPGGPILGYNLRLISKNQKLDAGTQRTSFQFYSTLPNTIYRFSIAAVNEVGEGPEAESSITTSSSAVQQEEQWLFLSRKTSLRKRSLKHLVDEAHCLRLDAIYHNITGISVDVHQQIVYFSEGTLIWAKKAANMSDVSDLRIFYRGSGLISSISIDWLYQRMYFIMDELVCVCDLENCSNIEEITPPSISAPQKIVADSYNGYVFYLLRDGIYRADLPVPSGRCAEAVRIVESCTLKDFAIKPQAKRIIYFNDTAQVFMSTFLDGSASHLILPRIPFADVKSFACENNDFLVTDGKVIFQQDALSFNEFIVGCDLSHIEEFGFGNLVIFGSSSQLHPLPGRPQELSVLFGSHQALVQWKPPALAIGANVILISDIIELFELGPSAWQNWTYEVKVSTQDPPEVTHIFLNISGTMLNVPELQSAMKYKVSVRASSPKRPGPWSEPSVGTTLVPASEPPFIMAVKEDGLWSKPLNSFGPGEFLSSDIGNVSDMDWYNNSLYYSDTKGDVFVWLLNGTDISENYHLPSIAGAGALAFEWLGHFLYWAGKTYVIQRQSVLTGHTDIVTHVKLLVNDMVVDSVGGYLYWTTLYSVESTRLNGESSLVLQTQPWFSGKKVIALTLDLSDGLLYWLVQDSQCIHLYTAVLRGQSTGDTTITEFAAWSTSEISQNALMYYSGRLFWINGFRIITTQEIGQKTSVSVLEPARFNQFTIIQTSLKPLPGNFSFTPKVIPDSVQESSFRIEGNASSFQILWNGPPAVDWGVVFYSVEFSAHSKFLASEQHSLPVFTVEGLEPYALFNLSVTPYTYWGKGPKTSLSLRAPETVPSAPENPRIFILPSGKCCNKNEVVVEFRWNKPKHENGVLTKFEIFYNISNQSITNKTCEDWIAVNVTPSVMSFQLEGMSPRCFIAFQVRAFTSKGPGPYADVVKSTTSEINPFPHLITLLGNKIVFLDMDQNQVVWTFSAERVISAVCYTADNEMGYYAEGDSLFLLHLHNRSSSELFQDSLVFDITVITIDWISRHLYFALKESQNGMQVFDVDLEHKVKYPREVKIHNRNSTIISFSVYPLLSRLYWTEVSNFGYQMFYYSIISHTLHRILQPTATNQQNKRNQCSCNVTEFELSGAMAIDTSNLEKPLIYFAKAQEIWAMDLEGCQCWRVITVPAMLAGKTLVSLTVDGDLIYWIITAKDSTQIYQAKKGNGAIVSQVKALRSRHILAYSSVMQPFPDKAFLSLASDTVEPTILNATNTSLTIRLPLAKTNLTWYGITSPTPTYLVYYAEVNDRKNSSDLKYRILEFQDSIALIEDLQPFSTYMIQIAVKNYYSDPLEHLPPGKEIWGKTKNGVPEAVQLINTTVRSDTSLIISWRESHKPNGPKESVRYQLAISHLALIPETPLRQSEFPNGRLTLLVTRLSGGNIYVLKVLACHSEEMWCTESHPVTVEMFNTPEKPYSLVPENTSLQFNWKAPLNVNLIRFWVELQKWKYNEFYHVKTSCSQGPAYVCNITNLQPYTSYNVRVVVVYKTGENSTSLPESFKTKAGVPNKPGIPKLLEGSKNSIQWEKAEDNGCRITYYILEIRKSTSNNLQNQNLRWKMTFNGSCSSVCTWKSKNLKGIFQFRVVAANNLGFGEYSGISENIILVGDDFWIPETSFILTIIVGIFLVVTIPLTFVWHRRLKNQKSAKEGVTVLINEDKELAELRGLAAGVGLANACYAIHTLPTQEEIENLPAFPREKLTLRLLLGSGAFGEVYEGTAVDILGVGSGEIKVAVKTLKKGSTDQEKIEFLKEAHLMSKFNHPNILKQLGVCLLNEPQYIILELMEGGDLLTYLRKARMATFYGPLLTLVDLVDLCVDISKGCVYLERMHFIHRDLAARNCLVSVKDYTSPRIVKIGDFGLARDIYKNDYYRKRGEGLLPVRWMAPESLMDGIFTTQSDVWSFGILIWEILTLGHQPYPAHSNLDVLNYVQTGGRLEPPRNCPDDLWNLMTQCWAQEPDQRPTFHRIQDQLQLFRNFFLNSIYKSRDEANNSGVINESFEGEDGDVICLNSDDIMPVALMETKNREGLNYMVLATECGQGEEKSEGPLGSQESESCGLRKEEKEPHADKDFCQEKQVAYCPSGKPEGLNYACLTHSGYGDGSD
Chain of Serine/threonine-protein kinase Sgk1 (Homo sapiens) (O00141 whole entry): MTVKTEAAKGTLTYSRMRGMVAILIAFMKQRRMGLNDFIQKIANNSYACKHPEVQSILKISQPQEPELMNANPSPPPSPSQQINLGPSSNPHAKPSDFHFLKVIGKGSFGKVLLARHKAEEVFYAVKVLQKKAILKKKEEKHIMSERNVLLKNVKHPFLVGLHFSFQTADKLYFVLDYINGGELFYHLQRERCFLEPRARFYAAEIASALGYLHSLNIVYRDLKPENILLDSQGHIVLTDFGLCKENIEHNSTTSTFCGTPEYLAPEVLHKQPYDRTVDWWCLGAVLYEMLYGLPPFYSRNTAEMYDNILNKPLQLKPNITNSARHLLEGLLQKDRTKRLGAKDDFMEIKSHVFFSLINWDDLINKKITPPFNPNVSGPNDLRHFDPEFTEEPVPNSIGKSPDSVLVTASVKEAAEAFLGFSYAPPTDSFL
Chain of CDK3/Cyclin E (Homo sapiens) (P24864 whole entry, looked up): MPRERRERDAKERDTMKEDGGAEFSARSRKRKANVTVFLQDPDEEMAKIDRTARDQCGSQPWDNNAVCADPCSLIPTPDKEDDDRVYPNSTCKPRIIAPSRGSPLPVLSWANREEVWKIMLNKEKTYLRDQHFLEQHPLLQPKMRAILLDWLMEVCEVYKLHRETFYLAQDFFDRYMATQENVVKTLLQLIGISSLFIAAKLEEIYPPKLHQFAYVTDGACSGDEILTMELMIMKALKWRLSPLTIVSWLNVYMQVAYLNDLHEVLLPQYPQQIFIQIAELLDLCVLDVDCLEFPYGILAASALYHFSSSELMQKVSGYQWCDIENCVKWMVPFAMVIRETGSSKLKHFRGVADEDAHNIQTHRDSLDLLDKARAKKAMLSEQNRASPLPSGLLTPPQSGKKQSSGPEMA
Chain of CDK3/Cyclin E (Homo sapiens) (Q00526 whole entry, looked up): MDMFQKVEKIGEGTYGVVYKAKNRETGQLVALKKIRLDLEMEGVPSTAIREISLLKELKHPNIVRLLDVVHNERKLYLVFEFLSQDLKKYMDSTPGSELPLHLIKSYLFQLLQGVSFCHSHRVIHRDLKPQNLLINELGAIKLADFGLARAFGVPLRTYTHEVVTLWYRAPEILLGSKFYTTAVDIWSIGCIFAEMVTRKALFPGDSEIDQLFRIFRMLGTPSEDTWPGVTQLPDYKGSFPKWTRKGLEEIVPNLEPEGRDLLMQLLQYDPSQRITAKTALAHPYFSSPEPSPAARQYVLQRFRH

Which Activity [1] does the source give for CN1CCN(CCCOc2cccc3nc(Nc4ccc(Cl)c(C(F)(F)F)c4)ccc23)CC1 here?
Its Activity is less than 60%.

And the growth at 10 µM (LOX IMVI)?
The growth at 10 µM was -5.77%.

And the inhibition [2]?
Its inhibition is less than 60%.

And the inhibition [3]?
The inhibition was less than 60%.

What about the GI50 (MDA-MB-231) of the same compound?
The GI50 was 1.47 µM.

And the GI50 (UO-31)?
Its GI50 is 1.46 µM.

And the GI50 [4]?
Its GI50 is 1.69 µM.

And the LC50 (concentration killing 50% of cells) [4]?
The LC50 (concentration killing 50% of cells) was 5.88 µM.

And the TGI [4]?
The TGI was 3.15 µM.

What about the inhibition [5] of the same compound?
Its inhibition is less than 60%.

And the inhibition [6]?
Its inhibition is less than 60%.

What about the GI50 (cells) of the same compound?
The GI50 was 1.68 µM.

What about the LC50 (50% lethal concentration) (cells) of the same compound?
Its LC50 (50% lethal concentration) is 10.1 µM.

And the TGI (cells)?
The TGI was 3.66 µM.

And the GI50 (MCF7)?
Its GI50 is 1.41 µM.

What about the Activity [7] of the same compound?
Its Activity is less than 60%.

And the inhibition [8]?
The inhibition was less than 60%.

And the Activity [9]?
The Activity was less than 60%.

What about the GI50 (NCI-H322M) of the same compound?
Its GI50 is 1.44 µM.

What about the inhibition [10] of the same compound?
The inhibition was less than 60%.

What about the GI50 (NCI-H460) of the same compound?
Its GI50 is 1.72 µM.

What about the inhibition at 1 µM [11] of the same compound?
The inhibition at 1 µM was 12.7%.

And the GI50 (HOP-92)?
Its GI50 is 1.02 µM.

What about the GI50 (OVCAR-8) of the same compound?
Its GI50 is 1.92 µM.

What about the GI50 (SR) of the same compound?
The GI50 was 0.54 µM.

And the GI50 [12]?
The GI50 was 1.58 µM.

And the TGI [12]?
Its TGI is 3.17 µM.

What about the CC50 ([12]; read-out: LC50 (the source's name)) of the same compound?
Its CC50 is 6.27 µM.

And the GI50 [13]?
Its GI50 is 1.71 µM.

And the LC50 [13]?
The LC50 was 6.7 µM.

And the TGI [13]?
The TGI was 3.38 µM.

And the GI50 (CCRF-CEM)?
Its GI50 is 1.21 µM.

And the inhibition [14]?
The inhibition was less than 60%.

What about the GI50 (PC-3) of the same compound?
The GI50 was 1.57 µM.

And the inhibition [15]?
Its inhibition is less than 60%.

What about the Activity [16] of the same compound?
Its Activity is less than 60%.

And the inhibition [17]?
Its inhibition is less than 60%.

And the inhibition [18]?
The inhibition was less than 60%.

What about the inhibition [19] of the same compound?
Its inhibition is 96%.

What about the inhibition [20] of the same compound?
The inhibition was less than 60%.

And the GI50 [21]?
Its GI50 is greater than 10 µM.

What about the GI50 (NCI-H226) of the same compound?
Its GI50 is 2.07 µM.

What about the inhibition [22] of the same compound?
The inhibition was less than 60%.

And the Activity [23]?
The Activity was less than 60%.

And the inhibition [24]?
Its inhibition is less than 60%.

And the GI50 (UACC-257)?
Its GI50 is 1.72 µM.

What about the GI50 (A549) of the same compound?
Its GI50 is 1.72 µM.

From ChEMBL document CHEMBL4715724, “Novel 5-substituted-2-anilinoquinolines with 3-(morpholino or 4-methylpiperazin-1-yl)propoxy moiety as broad spectrum antiproliferative agents: Synthesis, cell based assays and kinase screening” (Bioorg Med Chem Lett, 2016)
